One assay relates to rats. In words: Intraperitoneally administered ANP in peritoneal dialysis solution, transport characteristics in rats, 4 hour dwell. Format: in vivo, rat. The procedure:
A first experiment was performed to assess the effect of intraperitoneal administered ANP on peritoneal dialysis transport characteristics in rats. In this study, a dose of 9 μg ANP/kg BW of rat was mixed in a base solution of 2.5% dextrose DIANEAL® solution. The rats were injected with 90 ml/kg BW of either the above solution with the ANP additive or an unaltered control DIANEAL® solution.
Blood samples were taken before and after the 4 hour dwell period. Dialysate samples were collected at the start of the dwell and every 2 hours thereafter. All samples were analyzed for urea nitrogen (UN), sodium (Na), glucose, protein (prtn), and osmolality (Osm). At the end of the 4 hour dwell period, the rats were sacrificed, the abdominal walls excised, and the effluents collected and weighed.
To prepare the above ANP solution, 250 cc of DIANEAL® PD-2 solution was transferred into a 250 ml empty bag (VIAFLEX®). 10 cc of DIANEAL® PD-2 solution was injected into a vial containing […] of ANF (atrial natriuretic factor--yANF,rat,28AA sold by Peninsula Laboratories, Inc.). 1.25 cc of the DIANEAL®/ANF solution was then withdrawn with a needle and syringe and injected into the 250 ml bag containing the DIANEAL® base solution through a 0.22 μm sterile filter. The bag was then enclosed with a sampling site coupler. The control solution was similarly transferred into a new 250 ml bag (VIAFLEX®) and enclosed with a sampling site coupler.

The test system of a further assay is sheep. In words: ANP in 4.25% dextrose DIANEAL peritoneal dialysis solution in conscious sheep, 6 hour dwell. It is filed as in vivo. As to conditions: mean, n = 5. The procedure:
In a second experiment performed on sheep, ANP was added to a 4.25% dextrose DIANEAL® solution to provide a final concentration of ANP in the solution of […]. The dialysis solution was then infused into the peritoneal cavity of the sheep in 50 ml/kg BW volumes. The dwell time periods were 6 hours; the sheep remained conscious.
wherein pl. vol. is plasma volume; Vo is the volume of the peritoneal cavity before the commencement of the dialysis; V6 is the volume of the peritoneal cavity after six hours; LFR is lymph flow rate; Bl. rec. is blood recovery; and PC rec. is peritoneal cavity recovery.

The mark [1] stands for this setting: ANP as additive versus control DIANEAL solution, Table 1 and FIGS. 1 and 2.
The mark [2] stands for this setting: rat, protein, 9 μg ANP/kg BW, 4 hour, mean ± SD.
Setting [3] is: rat, urea nitrogen, 9 μg ANP/kg BW, 4 hour, mean ± SD.
[4] abbreviates: ANP 1×10^31 7 M in 4.25% dextrose DIANEAL.

atrial natriuretic peptide [ANP]: in the assay on rats (setting [1]), the “effect on net ultrafiltration (in words)” value is recorded as “increases” and the “effect on sodium clearance (in words)” value is reported as “increases”. Also, the “nUF (net ultrafiltration)” value in the assay on rats (rat, 9 μg ANP/kg BW in 2.5% dextrose DIANEAL, 90 ml/kg BW i.p., 4 hour dwell, mean ± SD) is 8.17 ± 0.52 mL. Further, the “Osm (osmolality)” value with rats (rat, 9 μg ANP/kg BW in 2.5% dextrose DIANEAL, 4 hour sample, mean ± SD) stood at 308.0 ± 3.5 mOsm/kg. In addition, in the assay with rats (rat, glucose, 9 μg ANP/kg BW, 4 hour, mean ± SD), the “D/D0 (glucose)” value is recorded as 0.363 ± 0.024. Also, in the assay with rats (setting [2]), the “Clearance (prtn)” value amounted to 1.379 ± 0.117 µL/min and the “D/P (prtn)” value came to 0.0106 ± 0.0009. Moreover, the “Clearance (Na)” value in the assay with rats (rat, sodium, 9 μg ANP/kg BW, 4 hour, mean ± SD) came out at 0.1110 ± 0.0027 mL/min. In addition, in the assay on rats (setting [3]), the “Clearance (UN)” value is 0.106 ± 0.005 mL/min and the “D/P (UN)” value turned out to be 0.81 ± 0.04. In the assay with sheep (setting [4]), the Fl. loss amounted to 13.39 mL/kg, the “LFR (lymph flow rate)” value was determined as 6.45 mL/kg, the “NUF (net ultra filtration)” value is 22.05 mL/kg and the “PC rec. (peritoneal cavity recovery)” value came out at 82.12%. Also, in the assay on sheep (setting [4]), the Total rec. was found to be 93.81% and the “V6 (volume of the peritoneal cavity after six hours)” value was 0.07246 L/kg. Also, in the assay with sheep (ANP in 4.25% dextrose DIANEAL, 50 ml/kg BW), the “pl. vol. (plasma volume)” value was 52.70 mL/kg. The “Bl. rec. (blood recovery)” value with sheep (ANP in 4.25% dextrose DIANEAL) is recorded as 11.69%.

(Values after patent US5965533A, “Atrial natriuretic peptide (ANP) as an additive to peritoneal dialysis solutions” (Baxter International Inc., priority 1997, dated 1999).)
